From patent US20110306563A1, “MACROLACTONE DERIVATIVES, METHOD FOR THE PRODUCTION THEREOF AND USE THEREOF FOR THE TREATMENT OF CANCER” (SANOFI, priority 2008, published 2011) come the findings set out here.

Read-outs that look alike come from different tables or passages of the source.

Common to all, as to format: cell-based
Test [1] relates to HCT116. Description: 14C-Thymidine incorporation assay, HCT116. Conditions: Homo sapiens, HCT-116. As to the method: (§1) Experimental conditions for 14C-Thymidine incorporation assays: • 1) Cells were seeded in 96 well Cytostar microplates in 180 μl of culture medium (DMEM supplemented with 10% Fetal Calf Serum). • Seeding density are 2500 cells/well for HCT116, 5000 cells/well for HT29 and PC3 and 10000 cells/well for MDA-MB231, MDA-A1, H460 and B16F10. • 2) The microplates were incubated 4 h at 37° C. with 5% CO2 • 3) 10 μl of test compound were added • 4) The microplates were incubated 72 h at 37° C. with 5% CO2 • 5) 10 μl of 14C-Thymidine at 10 μCi/ml was added • 6) The microplates were incubated 24 h at 37° C. with 5% CO2 • 7) The radioactivity incorporated in the cells was measured with a Microbeta Trilux radioactivity scintillation counter (Wallac).
In general terms: Uptake of a labelled nucleoside into DNA is a usual measure of proliferation.

Test [2] has as its system Normal Human Dermal Fibroblasts (NHDF). Description: ATP viability assay (CellTiterGlo), NHDF. As to conditions: 96 h incubation. The protocol:
(§2) Experimental conditions for ATP viability assays: • 1) Cells were seeded in 96 well microplates in 135 μl of culture medium. • Culture medium used were RPMI supplemented with 10% Fetal Calf Serum for HL60 and CEM cell lines and DMEM with 10% FCS for Normal Human Dermal Fibroblasts (NHDF). Seeding density was 25000 cells/well for HL60 and CEM and 7500 cells/well for NHDF. • 2) The microplates were incubated 4 h at 37° C. with 5% CO2. • 3) 15 μl of test compound were added • 4) The microplates were incubated 96 h. • 5) 100 μl of a mix of lysing reagent and luciferase/luciferin was added (CellTiterGlo, Promega). The luminescence emitted was measured with a Microbeta Trilux counter (Wallac).
For orientation: ATP-based viability assays read luminescence as a measure of living cells.

The subject of test [3] is B16F10. As to the kind of experiment: 14C-Thymidine incorporation assay, B16F10. As to conditions: Mus musculus, B16-F10; B16F10, Melanoma; 72 h + 24 h 14C-Thymidine. The protocol: as §1
Test [4] has as its system H460. As to the kind of experiment: 14C-Thymidine incorporation assay, H460. Conditions: Homo sapiens, NCI-H460; H460, Lung; 72 h + 24 h 14C-Thymidine. As to the method: as §1
Test [5] deals with MDA-MB231. As to the kind of experiment: 14C-Thymidine incorporation assay, MDA-MB231. Conditions: Homo sapiens, MDA-MB-231; MDA-MB231, Breast; 72 h + 24 h 14C-Thymidine. As to the method: as §1
The subject of test [6] is HT29. As to the kind of experiment: 14C-Thymidine incorporation assay, HT29. Conditions: Homo sapiens, HT-29; HT29, Colon; 72 h + 24 h 14C-Thymidine. The protocol: as §1
The subject of test [7] is HL60. Description: ATP viability assay (CellTiterGlo), HL60. Conditions: Homo sapiens, HL-60; HL60, Leukemia; 96 h incubation. The protocol: as §2
The subject of test [8] is PC3. As to the kind of experiment: 14C-Thymidine incorporation assay, PC3. As to conditions: Homo sapiens, PC-3; PC3, Prostate; 72 h + 24 h 14C-Thymidine. The protocol: as §1
Test [9] relates to MDA-A1. Description: 14C-Thymidine incorporation assay, MDA-A1. Conditions: MDA-A1, Breast; 72 h + 24 h 14C-Thymidine. As to the method: as §1
Test [10] has as its system CEM. Description: ATP viability assay (CellTiterGlo), CEM. Conditions: Homo sapiens, CCRF-CEM, Leukemia, 96 h incubation. As to the method:
as §2

[11] abbreviates: HCT116 (colon), average, read-out: Average IC50 (nM) against HCT116 (colon).
[12] abbreviates: HCT116, Colon, 72 h + 24 h 14C-Thymidine, read-out: IC50.

The term IC50 denotes the concentration that gives 50% inhibition.

`CCC(C)C1C(=O)NC(Cc2ccc(O)c(Cl)c2)C(=O)NC(C(C)(C)O)C(=O)OC(c2ccccc2)C(C)/C=C/C=C(\C)C(OC)CC2OC2(C)C(=O)N1C` (stereo not drawn) [III]: the IC50 in [1] (setting [11]) worked out at 0.326 nM.
In the case of `CCC(C)C1C(=O)NC(Cc2cc(Cl)c(O)c(Cl)c2)C(=O)NC(C(C)(C)O)C(=O)OC(c2ccccc2)C(C)/C=C/C=C(\C)C(OC)CC2OC2(C)C(=O)N1C` (stereo not drawn) [II], the concentration for half-maximal inhibition (IC50) fell in the range of 6.2 to 9.5 nM in test [2]; 4.5 to 25.2 nM in test [3]; 9.1 to 10.4 nM in test [4]; 0.6 to 5.6 nM in [1] (setting [12]); 4.8 to 16.8 nM in [5]; 3 to 12.5 nM in test [6]. For the same compound, the IC50 was in the range of 9.5 to 15 nM in test [7], 4.4 to 16 nM in [8], 1.4 to 20.8 nM in test [9] and 7.1 to 10.5 nM in test [10].
In the case of `CCC(C)C1C(=O)NC(Cc2cc(Cl)c(OC)c(Cl)c2)C(=O)NC(C(C)(C)O)C(=O)OC(c2ccccc2)C(C)/C=C/C=C(\C)C(OC)CC2OC2(C)C(=O)N1C` (stereo not drawn) [IX], the concentration for half-maximal inhibition (IC50) in [1] (setting [12]) fell in the range of 2.1 to 2.2 nM; in test [5], 5.1 to 8.4 nM; in test [9], 9.6 to 14.1 nM.
Take `CCC(C)C1C(=O)NC(Cc2ccc(O)c(Br)c2)C(=O)NC(C(C)(C)O)C(=O)OC(c2ccccc2)C(C)/C=C/C=C(\C)C(OC)C/C=C(/C)C(=O)N1C` (stereo not drawn) [VIII]: the IC50 in test [1] (setting [11]) was 2.1 nM.
For `CCC(C)C1C(=O)NC(Cc2ccc(O)c(Br)c2)C(=O)NC(C(C)(C)O)C(=O)OC(c2ccccc2)C(C)/C=C/C=C(\C)C(OC)CC2OC2(C)C(=O)N1C` (stereo not drawn) [VII], the IC50 in test [1] (setting [11]) worked out at 0.268 nM.
The same measure, in the same setting: the same measure for `CCC(C)C1C(=O)NC(Cc2cc(Cl)c(O)c(Br)c2)C(=O)NC(C(C)(C)O)C(=O)OC(c2ccccc2)C(C)/C=C/C=C(\C)C(OC)CC2OC2(C)C(=O)N1C` (stereo not drawn) [VI]: 0.393 nM; for `COC1CC2OC2(C)C(=O)N(C)C(C(C)C)C(=O)NC(Cc2cc(Cl)c(O)c(Cl)c2)C(=O)NC(C(C)(C)O)C(=O)OC(c2ccccc2)C(C)/C=C/C=C/1C` (stereo not drawn) [V]: 0.673 nM.
